In one assay the test system is S. pneumoniae. The experiment in a line: Kill or inhibit growth/proliferation; morphology, biofilm and growth disruption (Tables 5, 6). Note: test concentration or dose not given here. Type of assay: cell-based, Streptococcus pneumoniae. Set-up: key: A: Peptide aggregates; B: Less hyphal formation; Clumps; Diffuse clumps and small polyps; F: Diffuse growth; H: Thin; I: Growth inhibition; Microcolony formation; Rippled; Small polyps; Thick; W: Halo formation on top, microlonies on bottom.

Assay [1] concerns microorganisms (e.g., bacteria, yeasts, fungi). The experiment in a line: Targeting peptide binding to target microorganisms (Table 3). The conditions noted are these: preferably 1x PBS; for Target(s): microorganism(s) the targeting peptide binds.
The test system of a further assay is microorganisms. The experiment in a line: Peptides having multiple activities (targeting/binding, antimicrobial, growth or phenotype altering). Set-up: key: B: targeting/binding activity;; M: antimicrobial activity;; G: Growth or phenotype altering. An excerpt:
In certain embodiments, peptides described herein can have multiple activities. Thus for example, a peptide can have both binding/targeting activity and antimicrobial activity. Such peptides can be used, e.g., in a chimeric construct, for any or all of these properties. Thus, for example, a peptide designated “B” in Table 8 can be used as a targeting peptide. If it is also designated G or M it can also be used for antimicrobial activity.

[2] abbreviates: peptide binding conducted in aqueous buffers varied by peptide solubility.

Entries after “also recorded” stand apart in the source; their conditions may differ. Ends that are not written are not given here.

As to HKNKLNIPHIKS [PF-477], in the assay on S. pneumoniae, the “Organism, effect” value is on record as “S. pneumoniae (H)”. Moreover, the “Target(s)” value in assay [1] (setting [2]) is on record as “S. epidermidis; also recorded: M. luteus; also recorded: C. albicans; also recorded: S. pneumoniae; also recorded: C. jeikeium; also recorded: C. jejuni”. Besides, the Activities entry with microorganisms is listed as “G B”.
Turning to LHVIRPRPELSELKFPITKILKVNKQGLKK [PF-752], the “Organism, effect (morphology, biofilm and growth disruption)” value in the assay on S. pneumoniae was “S. pneumoniae (C)”. In assay [1] (peptide binding in aqueous buffers varied by peptide solubility), the “Target(s) (microorganisms bound by the targeting peptide)” value is “S. epidermidis and E. coli and MRSA and S. pneumoniae and E. faecalis”. The Activities entry in the assay with microorganisms is reported as “G B”.
On to “PF-144: peptide having multiple activities (RSGQPVGRPSRRAWLR; Peptide with targeting and/or antimicrobial activity)”, for which the “Organism, effect” value with S. pneumoniae is recorded as “S. pneumoniae (H)”. For the same substance, in assay [1] (binding in aqueous buffers depending on peptide solubility), the “Target(s)” value is “S. epidermidis and M. luteus and E. coli and C. albicans and MRSA and S. pneumoniae and E. faecalis and C. jeikeium”. The Activities result in the assay with microorganisms is on record as “G B”.
As for “PF-414: peptide having multiple activities (LLNKKLE; Peptide with targeting and/or antimicrobial activity)”, in the assay on S. pneumoniae, the “Organism, effect” value was “S. pneumoniae (H)”. In assay [1] (setting [2]), the “Target(s)” value is “E. coli; also recorded: C. albicans; also recorded: C. jeikeium”. The Activities entry with microorganisms is “G B”.
As for “PF-416: peptide having multiple activities (SKAGLYGKIERSDKRE; Peptide with targeting and/or antimicrobial activity)”, in the assay on S. pneumoniae, the “Organism, effect” value is recorded as “S. pneumoniae (H)”. The “Target(s)” value in assay [1] (setting [2]) is recorded as “S. pneumoniae; also recorded: C. jeikeium”. In addition, the Activities result in the assay with microorganisms was “G B”.
The corresponding values for “PF-421: peptide having multiple activities (KHCFEITDKTDVV; Peptide with targeting and/or antimicrobial activity)” are “S. pneumoniae (H)”, “C. jeikeium” and “G B”.
As for “PF-423: peptide having multiple activities (AGKKERLLSFREQFLNKNKKK; Peptide with targeting and/or antimicrobial activity)”, in the assay with S. pneumoniae, the “Organism, effect” value is on record as “S. pneumoniae (H)”. The “Target(s)” value in assay [1] (setting [2]) was “S. epidermidis; also recorded: M. luteus; also recorded: E. coli; also recorded: S. pneumoniae; also recorded: E. faecalis; also recorded: C. jeikeium”. Also, the Activities entry in the assay on microorganisms is “G B”.
In the case of “PF-424: peptide having multiple activities (IAAFVTSRAFSDTVSPI; Peptide with targeting and/or antimicrobial activity)”, the “Organism, effect” value in the assay on S. pneumoniae is “S. pneumoniae (H)”. The “Target(s)” value in assay [1] (setting [2]) is “S. epidermidis and C. albicans and MRSA”. The Activities entry in the assay with microorganisms is “G B”.
Regarding “PF-428: peptide having multiple activities (ENEESIF; Peptide with targeting and/or antimicrobial activity)”, in the assay with S. pneumoniae, the “Organism, effect” value is “S. pneumoniae (H)”. The “Target(s)” value in assay [1] (setting [2]) is given as “S. epidermidis; also recorded: C. albicans; also recorded: E. faecalis; also recorded: C. jeikeium”. Moreover, the Activities entry with microorganisms was “G B”.
As for “PF-433: peptide having multiple activities (MRKEFHNVLSSGQLLADKRPARDYNRK; Peptide with targeting and/or antimicrobial activity)”, in the assay on S. pneumoniae, the “Organism, effect” value is “S. pneumoniae (H)”. Moreover, the “Target(s)” value in assay [1] (setting [2]) was “S. epidermidis; also recorded: E. coli; also recorded: S. pneumoniae; also recorded: C. jeikeium”. Moreover, in the assay on microorganisms, the Activities result is recorded as “G B”.
The corresponding values for “PF-434: peptide having multiple activities (GQLLADKRPARDYNRK; Peptide with targeting and/or antimicrobial activity)” are “S. pneumoniae (S)”, “S. epidermidis; also recorded: M. luteus; also recorded: S. pneumoniae; also recorded: C. jeikeium” and “G B”.
The corresponding values for “PF-445: peptide having multiple activities (chain 1 ASMTKRLKLAMSKV; chain 2 ASMTKRLKLAMSKV; Peptide with targeting and/or antimicrobial activity)” are “S. pneumoniae (M)”, “M. luteus; also recorded: S. pneumoniae; also recorded: C. jeikeium” and “G B”.
On to “PF-446: peptide having multiple activities (chain 1 SGNEKV; chain 2 SGNEKV; Peptide with targeting and/or antimicrobial activity)”, for which the “Organism, effect” value in the assay on S. pneumoniae is given as “S. pneumoniae (H)”. In addition, the “Target(s)” value in assay [1] (setting [2]) was “M. luteus; also recorded: C. jeikeium”. Moreover, the Activities entry with microorganisms is listed as “G B”.
For “PF-457: peptide having multiple activities (chain 1 INKYHHIA; chain 2 INKYHHIA; Peptide with targeting and/or antimicrobial activity)”, in that order: “S. pneumoniae (M)”, “C. albicans; also recorded: S. pneumoniae; also recorded: E. faecalis; also recorded: C. jeikeium” and “G B”.
For “PF-459: peptide having multiple activities (chain 1 EKRMSFNENQSHRPLL; chain 2 EKRMSFNENQSHRPLL; Peptide with targeting and/or antimicrobial activity)”, the “Organism, effect” value in the assay on S. pneumoniae is listed as “S. pneumoniae (H)”. Moreover, the “Target(s)” value in assay [1] (setting [2]) is given as “P. aeruginosa”. Besides, in the assay on microorganisms, the Activities result is “G B”.
For “PF-462: peptide having multiple activities (chain 1 KNKTDTL; chain 2 KNKTDTL; Peptide with targeting and/or antimicrobial activity)”, in that order: “S. pneumoniae (H)”, “E. faecalis; also recorded: C. jeikeium” and “G B”.
As to “PF-464: peptide having multiple activities (chain 1 VDMVNRFLGN; chain 2 VDMVNRFLGN; Peptide with targeting and/or antimicrobial activity)”, the “Organism, effect” value in the assay with S. pneumoniae is “S. pneumoniae (S)”. Moreover, the “Target(s)” value in assay [1] (setting [2]) is “S. epidermidis and C. albicans and MRSA and S. pneumoniae and E. faecalis and C. jeikeium and C. jejuni”. The Activities result in the assay on microorganisms is given as “G B”.
As to “PF-465: peptide having multiple activities (chain 1 KPVGKALEEIADGKIEPVVPKEYLG; chain 2 KPVGKALEEIADGKIEPVVPKEYLG; Peptide with targeting and/or antimicrobial activity)”, the “Organism, effect” value in the assay on S. pneumoniae is “S. pneumoniae (H)”. Besides, in the assay with microorganisms, the Activities result is on record as “G B”.
On to “PF-466: peptide having multiple activities (chain 1 VRKSDQ; chain 2 VRKSDQ; Peptide with targeting and/or antimicrobial activity)”, for which the “Organism, effect” value with S. pneumoniae is “S. pneumoniae (H)”. Also, the “Target(s)” value in assay [1] (setting [2]) was “MRSA and C. jeikeium and C. jejuni”. Also, the Activities entry in the assay with microorganisms is “G B”.
In the case of “PF-467: peptide having multiple activities (chain 1 YYKDYFKEI; chain 2 YYKDYFKEI; Peptide with targeting and/or antimicrobial activity)”, in the assay on S. pneumoniae, the “Organism, effect” value was “S. pneumoniae (H)”. In addition, the “Target(s)” value in assay [1] (setting [2]) is “MRSA and E. faecalis and C. jeikeium and C. jejuni”. Also, in the assay with microorganisms, the Activities result is recorded as “G B”.
As to “PF-476: peptide having multiple activities (chain 1 WADAQYKLCENCSE; chain 2 WADAQYKLCENCSE; Peptide with targeting and/or antimicrobial activity)”, the “Organism, effect” value with S. pneumoniae was “S. pneumoniae (H)”. Besides, in assay [1] (setting [2]), the “Target(s)” value is on record as “M. luteus; also recorded: P. mirabilis; also recorded: C. albicans; also recorded: S. pneumoniae; also recorded: E. faecalis; also recorded: C. jeikeium; also recorded: C. jejuni”. The Activities result in the assay on microorganisms is listed as “G B”.
On to “PF-479: peptide having multiple activities (chain 1 AYILKRREEKNK; chain 2 AYILKRREEKNK; Peptide with targeting and/or antimicrobial activity)”, for which the “Organism, effect” value in the assay on S. pneumoniae is on record as “S. pneumoniae (C)”. In addition, the Activities entry in the assay on microorganisms was “G B”.
“PF-482: peptide having multiple activities (chain 1 LVGYVRTSGTVRSYKIN; chain 2 LVGYVRTSGTVRSYKIN; Peptide with targeting and/or antimicrobial activity)”: in the assay on S. pneumoniae, the “Organism, effect” value was “S. pneumoniae (S)”. In addition, in the assay on microorganisms, the Activities entry is listed as “G B”.
In the case of “PF-513: peptide having multiple activities (chain 1 SNGVGLGVGIGSGIRF-NH2; chain 2 SNGVGLGVGIGSGIRF-NH2)”, the “Organism, effect” value with S. pneumoniae is on record as “S. pneumoniae (M)”. In addition, the “Target(s)” value in assay [1] (setting [2]) was “C. albicans”. Besides, in the assay with microorganisms, the Activities result is given as “G B”.
Consider “PF-516: peptide having multiple activities (ASKQASKQASKQASKQ; Peptide with targeting and/or antimicrobial activity)”, for which the “Organism, effect” value in the assay on S. pneumoniae was “S. pneumoniae (H)”. In addition, the Activities entry in the assay with microorganisms was “G”.
The corresponding values for “PF-537: peptide having multiple activities (chain 1 LANDYYKKTKKSW; chain 2 LANDYYKKTKKSW; Peptide with targeting and/or antimicrobial activity)” are “S. pneumoniae (C)” and “G B”.
